Results as given in article PMC9064011 (RSC Advances, 2019).

Legend:
[1] = test system: MCF-7 cells; experiment: MTT assay for tumor cell growth inhibition, MCF-7; format: cell-based; conditions: Homo sapiens, MCF7, 48 h, read-out: IC50 MCF-7
[2] = test system: HepG2 cells; experiment: MTT assay for tumor cell growth inhibition, HepG2; format: cell-based; conditions: Homo sapiens, HepG2, 48 h, read-out: IC50 HepG2
[3] = test system: L-O2 cells; experiment: MTT assay for cell growth inhibition, L-O2; format: cell-based; conditions: Homo sapiens, L02, 48 h, read-out: IC50 L-O2
[4] = test system: HeLa cells; experiment: MTT cell growth inhibition; format: cell-based; conditions: Homo sapiens
[5] = test system: Hypoxia Inducible Factor-1 (HIF-1) pathway; experiment: cells; conditions: Homo sapiens, HeLa, 12 h, read-out: HRE IC50
[6] = test system: Hypoxia Inducible Factor-1 (HIF-1) pathway; conditions: dual luciferase reporter system
[7] = test system: H322 cell; conditions: previous work in our laboratory, ref unpublished; cited from earlier work
[8] = test system: hypoxia inducible factor-1 (HIF-1) transcription; conditions: dual luciferase reporter assay, previous work in our laboratory, ref unpublished; cited from earlier work

| IC50 [1] [µM] | IC50 [2] [µM] | GI50 [4] [µM] | IC50 [5] [µM] | SMILES | IC50 [3] [µM] | HIF inhibitory activity (in words) [6] | cytotoxicity against H322 cell [7] | inhibitory activity on HIF-1 transcription [8] |
| --- | --- | --- | --- | --- | --- | --- | --- | --- |
| > 100 | > 100 | > 100 | 5.41 ± 1.1 | COC(=O)c1c(C#Cc2ccc(OC)cc2)cccc1-c1ccc(OC)cc1 [Compound 1a, Methyl 4′-methoxy-3-((4-methoxyphenyl)ethynyl)-[1,1′-biphenyl]-2-carboxylate] | > 100 |  |  |  |
| > 100 | > 100 | > 100 | 20.7 ± 2.5 | COc1ccc(C#Cc2cccc(-c3ccc(OC)cc3)c2C(=O)O)cc1 [Compound 1b, 4′-Methoxy-3-((4-methoxyphenyl)ethynyl)-[1,1′-biphenyl]-2-carboxylic acid] | > 100 |  |  |  |
| 7.18 ± 1.2 |  | 3.75 ± 0.2 | 2.36 ± 0.4 | COc1ccc(C#Cc2cccc(-c3ccc(OC)cc3)c2C(=O)c2ccc(OC)cc2)cc1 [Compound 1c, (4′-Methoxy-3-((4-methoxyphenyl)ethynyl)-[1,1′-biphenyl]-2-yl)(4-methoxyphenyl)methanone] |  |  |  |  |
| 51.2 ± 0.6 | 54.8 ± 1.9 | 44.81 ± 0.2 | 9.52 ± 0.4 | COc1ccc(C(=O)c2c(C#Cc3ccc(O)cc3)cccc2-c2ccc(O)cc2)cc1 [Compound 1d, (4′-Hydroxy-3-((4-hydroxyphenyl)ethynyl)-[1,1′-biphenyl]-2-yl)(4-methoxyphenyl)methanone] | 64 ± 1 |  |  |  |
| 95.57 ± 0.4 | 55.5 ± 1.9 | 86.31 ± 0.5 | 13.7 ± 0.4 | O=c1oc(-c2ccc(O)cc2)cc2cccc(-c3ccc(O)cc3)c12 [Compound 1e, 3,8-Bis(4-hydroxyphenyl)-1H-isochromen-1-one] | 92.5 ± 2 |  |  |  |
| > 100 | > 100 | > 100 | 18.3 ± 1.6 | COC(=O)c1cc(C#Cc2ccc(OC)cc2)ccc1-c1ccc(OC)cc1 [Compound 2a, Methyl 4′-methoxy-4-((4-methoxyphenyl)ethynyl)-[1,1′-biphenyl]-2-carboxylate] | > 100 |  |  |  |
| > 100 | > 100 | > 100 | 15.6 ± 1.6 | COc1ccc(C#Cc2ccc(-c3ccc(OC)cc3)c(C(=O)O)c2)cc1 [Compound 2b, 4′-Methoxy-4-((4-methoxyphenyl)ethynyl)-[1,1′-biphenyl]-2-carboxylic acid] | > 100 |  |  |  |
| > 100 | > 100 | > 100 | 39.9 ± 3.1 | COc1ccc(C#Cc2ccc(-c3ccc(OC)cc3)c(C(=O)c3ccc(OC)cc3)c2)cc1 [Compound 2c, (4′-Methoxy-4-((4-methoxyphenyl)ethynyl)-[1,1′-biphenyl]-2-yl)(4-methoxyphenyl)methanone] | > 100 |  |  |  |
| 6.49 ± 0.1 | 24.99 ± 0.1 | 3.24 ± 0.1 | 4.47 ± 0.6 | COc1ccc(C(=O)c2cc(C#Cc3ccc(O)cc3)ccc2-c2ccc(O)cc2)cc1 [Compound 2d, (4′-Hydroxy-4-((4-hydroxyphenyl)ethynyl)-[1,1′-biphenyl]-2-yl)(4-methoxyphenyl)methanone] | 7.83 ± 1.2 |  |  |  |
| > 100 | > 100 | > 100 | 20.8 ± 0.8 | COc1ccc(C#Cc2ccc(-c3ccc(OC)cc3)c(C(O)(c3ccc(OC)cc3)c3ccc(OC)cc3)c2)cc1 [Compound 2e, (4′-Methoxy-4-((4-methoxyphenyl)ethynyl)-[1,1′-biphenyl]-2-yl)bis(4-methoxyphenyl)methanol] | > 100 |  |  |  |
| > 100 | > 100 | > 100 | 1.89 ± 0.4 | CCCCC(O)(c1ccc(OC)cc1)c1cc(C#Cc2ccc(OC)cc2)ccc1-c1ccc(OC)cc1 (stereo not shown) [Compound 2f, 1-(4′-methoxy-4-((4-methoxyphenyl)ethynyl)-[1,1′-biphenyl]-2-yl)-1-(4-methoxyphenyl)pentan-1-ol] | > 100 |  |  |  |
| 13 ± 0.7 | 15.1 ± 0.6 | 15.48 ± 0.1 | 8.1 ± 1.4 | COc1ccc(-c2ccc(C#Cc3ccc(O)cc3)cc2C(O)(c2ccc(OC)cc2)c2ccc(OC)cc2)cc1 [Compound 2g, 4-((2-(Hydroxybis(4-methoxyphenyl)methyl)-4′-methoxy-[1,1′-biphenyl]-4-yl)ethynyl)phenol] | 16.4 ± 1.3 |  |  |  |
| 11.9 ± 0.5 | 11.8 ± 0.8 | 10.8 ± 0.3 | 2.52 ± 0.4 | COc1ccc(C(O)(c2ccc(OC)cc2)c2cc(C#Cc3ccc(O)cc3)ccc2-c2ccc(O)cc2)cc1 [Compound 2h, 2′-(hydroxybis(4-methoxyphenyl)methyl)-4′-((4-hydroxyphenyl)ethynyl)-[1,1′-biphenyl]-4-ol] | 10.6 ± 1.1 |  |  |  |
| 9.23 | 8.96 ± 0.4 | 7.58 ± 0.1 | 5.55 ± 1.3 | COc1ccc(C2(c3ccc(OC)cc3)c3cc(O)ccc3-c3ccc(C#Cc4ccc(O)cc4)cc32)cc1 [Compound 2i, 7-((4-Hydroxyphenyl)ethynyl)-9,9-bis(4-methoxy-phenyl)-9H-fluoren-2-ol] | 10.9 ± 1 |  |  |  |
| 12.1 ± 0.1 | 11.6 ± 0.6 | 4.47 ± 0.5 |  | COc1ccc(C(=C2C=CC(=O)C=C2)c2cc(C#Cc3ccc(O)cc3)ccc2-c2ccc(O)cc2)cc1 [Compound 2j, 4-((4′-Hydroxy-4-((4-hydroxyphenyl)ethynyl)-[1,1′-biphenyl]-2-yl)(4-methoxyphenyl)methylene)cyclohexa-2,5-dien-1-one] | 11.1 ± 0.7 | little HIF inhibitory activity |  |  |
|  |  |  |  | Cc1ccc(-c2ccc(O)cc2)c(C(=C2C=CC(=O)C=C2)c2ccccc2)c1C#Cc1ccc(O)cc1 [selaginellin A] |  |  | moderately cytotoxic | displayed inhibitory activity |
|  |  |  |  | Cc1ccc(-c2ccc(O)cc2)c(C(=C2C=CC(=O)C=C2)c2ccc(O)cc2)c1C#Cc1ccc(O)cc1 [selaginellin B] |  |  | moderately cytotoxic |  |
